We go through 2 compounds from patent US10370376B2, “Amorphous substance of Idelalisib and preparation method therefor” (Alnova Pharmaceuticals, Ltd., priority 2015, dated 2019).

Converted amounts (≈) assume the structure as drawn.

Holding throughout (assay type): physicochemical
A short description of data set [1]: Accelerated stability test of the amorphous Idelalisib (HPLC and XRPD). The settings on record: for Crystalline (XRPD) / Relevant substances (Total impurities %): Temperature 40° C. ± 2° C., Humidity 75% ± 5%. The method, then:
Experiment conditions: temperature 40° C.±2° C., humidity 75%±5% The substance was detected by HPLC.

The nature of data set [2]: Impact factor test of the amorphous Idelalisib (high temperature, high humidity; HPLC and XRPD).
The nature of data set [3]: Determination of apparent solubility (saturation solubility by HPLC) in diluents of different pH. The settings on record: for solubility at 12 h: 37 °C, thermodynamic from solid; for solubility at 12 h / Apparent solubility: shaken 12 hours, average of 3; for Apparent solubility: 37° C. The protocol:
The crystalline Idelalisib, Form I, was prepared according to the method of Example 1 of U.S. Pat. No. 8,865,730.
Determination of apparent solubility: weigh a certain amount of the sample into a 1.8 mL of centrifuge tube, add 1 mL of the specified pH diluent, cap tightly. Each solution was prepared with 3 replicates (the amount of the added sample must be much larger than of which can be formed a saturated solution at different pH, details were shown in Table 1), and then 1 mL of the designated pH diluent was added. Then the centrifuge tube containing the test solution was shaken in a water bath at 37° C.±0.5° C. for 12 hours, let Stand in an oven at 37° C. for 2 hours. The upper lay was filtered through a […] microporous membrane. Pipette 200 uL of the filtrated solution into a vial containing 200 uL of acetonitrile, shaken to mix. Label it as test solution. Inject 2 uL of the test solution to HPLC system, record the peak area of main peak. Inject the reference standard solution following the same procedure as the test solution, record the peak area of the main peak of reference standard. According to the main peak area of the test solution and the reference solution, the concentration of the reference solution and the concentration of the test solution are calculated by external standard method. Then the saturation solubility will be obtained by multiplying concentration by the dilution factor of 2. The final result of saturation solubility is the average result of three parallel test samples.
Preparation of reference standard solution: accurately weight about 25 mg of Idelalisib (Form I) into a 25 mL of volumetric flask, dissolve and dilute to the volume with diluent (acetonitrile:water=1:1). The concentration of the reference standard is about 1 mg/mL.
Preparation of Diluents of Different pH:
(1) pH=1.0 diluent: Add 9 mL of concentrated HCl to a 1000 mL of volumetric flask, diluted to the volume with water.
(2) pH=2.0 diluent: Solution A: Transfer 16.6 mL of phosphoric acid to a 100 mL volumetric flask, dilute to the volume with water, shake to mix. Solution B: Weigh and transfer 71.63 g of […] to a 1000 mL of volumetric flask, dilute to the volume with water, dissolve and mix well. Mix 72.5 mL of solution A and 27.5 mL of solution B.
(3) pH=3.0 diluent: transfer 50 mL of glacial acetic acid to a 1000 mL of volumetric flask, add 800 mL of water, adjust pH to 3.0 with lithium hydroxide, then diluted to the volume with water.
(4) pH=4.0 diluent: weigh and transfer 7.7 g of ammonium acetate, dissolve with 50 mL of water, add 6 mL of glacial acetic acid, then diluted to 100 mL with water.
(5) pH=5.6 diluent: Phthalate buffer (pH 5.6): Transfer 10 g of potassium hydrogen phthalate, add 900 mL of water, stir to dissolve, adjust pH to 5.6 with sodium hydroxide solution (or diluted hydrochloric acid if necessary) then diluted to the volume with water.
(6) pH=6.8 diluent: mix 250 mL of 0.2 mol/L potassium dihydrogen phosphate solution and 118 mL of 0.2 mol/L sodium hydroxide solution, diluted to 1000 mL with water, shaken to mix.
(7) pH=7.4 diluent: transfer 1.36 g of potassium dihydrogen phosphate, add 79 mL of 0.1 mol/L sodium hydroxide solution, diluted to 200 mL with water.

Assay in data set [4]: as above
The settings on record: pH 4.5 diluent, 37° C., shaken 12 hours, average of 3.

Where [5] appears, read: accelerated test conditions after 6 months.
The mark [6] stands for this setting: high temperature, high humidity after 10 days.

With `CC[C@H](Nc1ncnc2[nH]cnc12)c1nc2cccc(F)c2c(=O)n1-c1ccccc1` [amorphous Idelalisib, 5-fluoro-3-phenyl-2-[(1S)-1-(9H-purin-6-ylamino)propyl]-4(3H)-quinazolinone], the “Crystalline (XRPD)” value in data set [1] (0 month), in data set [1] (1 month), in data set [1] (2 months), in data set [1] (3 months), in data set [1] (6 months) and in data set [2] (0 day) was “There is no peak of crystalline Idelalisib” throughout. Further, the “Crystalline (XRPD)” value in data set [2] (5 days, all four conditions (40° C., 60° C., humidity 75%, 90%)) was “There is no peak of crystalline Idelalisib”; in data set [2] (10 days, all four conditions (40° C., 60° C., humidity 75%, 90%)), “There is no peak of crystalline Idelalisib”. Besides, the “Relevant substances (Total impurities %)” value in data set [1] (0 month) came out at 0.12%; in data set [1] (1 month) it was 0.14%; in data set [1] (2 months), 0.15%; in data set [1] (3 months), 0.16%; in data set [1] (6 months) it was 0.19%; in data set [2] (0 day) it was 0.12%. Further, the “Relevant substances (Total impurities %)” value in data set [2] (5 days, Humidity 75% ± 5%) came out at 0.14%; in data set [2] (5 days, Humidity 90% ± 5%), 0.16%; in data set [2] (5 days, Temperature 40° C. ± 2° C.), 0.13%; in data set [2] (5 days, Temperature 60° C. ± 2° C.), 0.14%; in data set [2] (10 days, Humidity 75% ± 5%), 0.14%; in data set [2] (10 days, Humidity 90% ± 5%), 0.16%. Also, the “Relevant substances (Total impurities %)” value amounted to 0.14% in data set [2] (10 days, Temperature 40° C. ± 2° C.) and 0.16% in data set [2] (10 days, Temperature 60° C. ± 2° C.). The “Changes in the relevant substances” value in data set [1] (setting [5]) and in data set [2] (setting [6]) was “no significant changes” throughout. Moreover, the “Crystallization of Idelalisib” value in data set [1] (setting [5]) and in data set [2] (setting [6]) was “no crystallization of Idelalisib was observed” in each case. In addition, the “Apparent solubility compared with that of the Form I” value in data set [3] (at each pH (1.0 to 7.4)) was “significantly higher”. For the same compound, the solubility (as a rule, the dissolved amount per volume that the medium holds) at 12 h in data set [3] (pH 1.0 diluent (dilute HCl), pH 1, simulated gastric fluid, pH 1.0 diluent) is 52700 µg/mL (≈ 127000 µM); in data set [3] (pH 5.6 diluent (phthalate buffer), pH 5.6, aqueous buffer, pH 5.6 diluent) it was 75.8 µg/mL (≈ 182 µM); in data set [3] (pH 6.8 diluent (phosphate buffer), pH 6.8, aqueous buffer, pH 6.8 diluent), 75.3 µg/mL (≈ 181 µM); in data set [3] (pH 7.4 diluent (phosphate buffer), pH 7.4, aqueous buffer, pH 7.4 diluent), 74.3 µg/mL (≈ 179 µM). Further, the Apparent solubility in data set [3] (pH 2.0 diluent) was found to be 7037.94 µg/mL; in data set [3] (pH 3.0 diluent) it was 1622.95 µg/mL; in data set [4], 694.19 µg/mL.

As for `CC[C@H](Nc1ncnc2[nH]cnc12)c1nc2cccc(F)c2c(=O)n1-c1ccccc1` [crystalline Idelalisib (Form I), 5-fluoro-3-phenyl-2-[(1S)-1-(9H-purin-6-ylamino)propyl]-4(3H)-quinazolinone, reference compound], the Apparent solubility was determined as 34580.16 µg/mL in data set [3] (pH 1.0 diluent); 1756.55 µg/mL in data set [3] (pH 2.0 diluent); 317.47 µg/mL in data set [3] (pH 3.0 diluent); 46.91 µg/mL in data set [3] (pH 5.6 diluent); 47.35 µg/mL in data set [3] (pH 6.8 diluent); 45.08 µg/mL in data set [3] (pH 7.4 diluent). In addition, the Apparent solubility in data set [4] amounted to 147.02 µg/mL.
